In US9029391B2 (priority 2011, dated 2015):

Tested on: HIV
Experiment: MT4 Assay (anti-HIV activity)
Format: cell-based
Conditions: Human immunodeficiency virus 1, 96 h, read-out: HIV MT4 Assay IC50, HTLV-1 transformed cell line MT-4, cell titer glo, 10 point dose response curve
Outline: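 MT-4 cells (HTLV-1 transformed) were used for antiviral activity and cytotoxicity, run in parallel, with luminescence read by CellTiter-Glo 96 hours later. Percent inhibition was expressed against the no-compound control. IC50s came from 10-point curves of 3-4-fold serial dilutions spanning >1000-fold.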

**Q.** How did the IC50 turn out when `Cc1ccc(-c2c(C(OC(C)(C)C)C(=O)O)n(C)c(=O)c3ccccc23)cc1` (centres unmarked) [Example 7, 2-(tert-butoxy)-2-[2-methyl-4-(4-methylphenyl)-1-oxo-1,2-dihydroisoquinolin-3-yl]acetic acid] was run?
**A.** The IC50 was 0.7 µM.

**Q.** With `COc1ccc(-c2c(C(OC(C)(C)C)C(=O)O)n(C)c(=O)c3ccccc23)cc1` (centres unmarked) [Example 8, 2-(tert-butoxy)-2-[4-(4-methoxyphenyl)-2-methyl-1-oxo-1,2-dihydroisoquinolin-3-yl]acetic acid] as the molecule, how does the IC50 read?
**A.** Its IC50 is 1.3 µM.

**Q.** For `Cn1c(C(OC(C)(C)C)C(=O)O)c(-c2ccc(F)cc2)c2ccccc2c1=O` (centres unmarked) [Example 9, 2-(tert-butoxy)-2-[4-(4-fluorophenyl)-2-methyl-1-oxo-1,2-dihydroisoquinolin-3-yl]acetic acid], which IC50 is on record?
**A.** The IC50 was 1.33 µM.

**Q.** How did the IC50 turn out when `Cc1cc(C)cc(-c2c(C(OC(C)(C)C)C(=O)O)n(C)c(=O)c3ccccc23)c1` (centres unmarked) [Example 10, 2-(tert-butoxy)-2-[4-(3,5-dimethylphenyl)-2-methyl-1-oxo-1,2-dihydroisoquinolin-3-yl]acetic acid] was run?
**A.** The IC50 was 10.5 µM.

**Q.** With `Cn1c(C(OC(C)(C)C)C(=O)O)c(-c2ccc(Cl)c(Cl)c2)c2ccccc2c1=O` (centres unmarked) [Example 11, 2-(tert-butoxy)-2-[4-(3,4-dichlorophenyl)-2-methyl-1-oxo-1,2-dihydroisoquinolin-3-yl]acetic acid] as the molecule, how does the IC50 read?
**A.** The IC50 was 14.8 µM.

**Q.** With `Cn1c(C(OC(C)(C)C)C(=O)O)c(-c2cc(Cl)cc(Cl)c2)c2ccccc2c1=O` (centres unmarked) [Example 12, 2-(tert-butoxy)-2-[4-(3,5-dichlorophenyl)-2-methyl-1-oxo-1,2-dihydroisoquinolin-3-yl]acetic acid] as the molecule, how does the IC50 read?
**A.** Its IC50 is 36.7 µM.

**Q.** How did the IC50 turn out when `Cn1c(C(OC(C)(C)C)C(=O)O)c(-c2cccc(C(F)(F)F)c2)c2ccccc2c1=O` (centres unmarked) [Example 13, 2-(tert-butoxy)-2-{2-methyl-1-oxo-4-[3-(trifluoromethyl)phenyl]-1,2-dihydroisoquinolin-3-yl}acetic acid] was run?
**A.** Its IC50 is 23.8 µM.

**Q.** Which IC50 does the source give for `Cn1c(C(OC(C)(C)C)C(=O)O)c(-c2cc(Cl)ccc2Cl)c2ccccc2c1=O` (centres unmarked) [Example 14, 2-(tert-butoxy)-2-[4-(2,5-dichlorophenyl)-2-methyl-1-oxo-1,2-dihydroisoquinolin-3-yl]acetic acid] here?
**A.** The IC50 was 2.57 µM.

**Q.** How did the IC50 turn out when `COc1cccc(-c2c(C(OC(C)(C)C)C(=O)O)n(C)c(=O)c3ccccc23)c1` (centres unmarked) [Example 15, 2-(tert-butoxy)-2-[4-(3-methoxyphenyl)-2-methyl-1-oxo-1,2-dihydroisoquinolin-3-yl]acetic acid] was run?
**A.** The IC50 was 8.59 µM.

**Q.** With `Cn1c(C(OC(C)(C)C)C(=O)O)c(-c2cccc(OC(F)(F)F)c2)c2ccccc2c1=O` (centres unmarked) [Example 16, 2-(tert-butoxy)-2-{2-methyl-1-oxo-4-[3-(trifluoromethoxy)phenyl]-1,2-dihydroisoquinolin-3-yl}acetic acid] as the molecule, how does the IC50 read?
**A.** Its IC50 is 20.7 µM.

**Q.** With `Cn1c(C(OC(C)(C)C)C(=O)O)c(-c2ccc(C(F)(F)F)cc2)c2ccccc2c1=O` (centres unmarked) [Example 17, 2-(tert-butoxy)-2-{2-methyl-1-oxo-4-[4-(trifluoromethyl)phenyl]-1,2-dihydroisoquinolin-3-yl}acetic acid] as the molecule, how does the IC50 read?
**A.** The IC50 was 18.4 µM.

**Q.** How did the IC50 turn out when `Cc1cccc(-c2c(C(OC(C)(C)C)C(=O)O)n(C)c(=O)c3ccccc23)c1` (centres unmarked) [Example 18, 2-(tert-butoxy)-2-[2-methyl-4-(3-methylphenyl)-1-oxo-1,2-dihydroisoquinolin-3-yl]acetic acid] was run?
**A.** Its IC50 is 3.58 µM.

**Q.** `Cc1c(-c2c(C(OC(C)(C)C)C(=O)O)n(C)c(=O)c3ccccc23)ccc2c1CCCO2` (centres unmarked) [Example 19, 2-(tert-butoxy)-2-[2-methyl-4-(5-methyl-3,4-dihydro-2H-1-benzopyran-6-yl)-1-oxo-1,2-dihydroisoquinolin-3-yl]acetic acid] was tested. Which IC50 did it give?
**A.** The IC50 was 0.41 µM.

**Q.** How did the IC50 turn out when `Cc1cc2c(cc1-c1c(C(OC(C)(C)C)C(=O)O)n(C)c(=O)c3ccccc13)CCCO2` (centres unmarked) [Example 20, 2-(tert-butoxy)-2-[2-methyl-4-(7-methyl-3,4-dihydro-2H-1-benzopyran-6-yl)-1-oxo-1,2-dihydroisoquinolin-3-yl]acetic acid] was run?
**A.** Its IC50 is 3.79 µM.
